Experimental data reported in paper PMC12474915 (Nature Communications, 2025).

Target: T1, MET1MTase (Arabidopsis thaliana, UniProt P34881)
T1 construct: gene DMT1; residues 621-1534 (lacks RFTS1-2; acidic linker, BAH1-2, MTase), GST tag cleaved by HRV3C, E. coli Rosetta2 (DE3)
T1 sequence (P34881 621-1534): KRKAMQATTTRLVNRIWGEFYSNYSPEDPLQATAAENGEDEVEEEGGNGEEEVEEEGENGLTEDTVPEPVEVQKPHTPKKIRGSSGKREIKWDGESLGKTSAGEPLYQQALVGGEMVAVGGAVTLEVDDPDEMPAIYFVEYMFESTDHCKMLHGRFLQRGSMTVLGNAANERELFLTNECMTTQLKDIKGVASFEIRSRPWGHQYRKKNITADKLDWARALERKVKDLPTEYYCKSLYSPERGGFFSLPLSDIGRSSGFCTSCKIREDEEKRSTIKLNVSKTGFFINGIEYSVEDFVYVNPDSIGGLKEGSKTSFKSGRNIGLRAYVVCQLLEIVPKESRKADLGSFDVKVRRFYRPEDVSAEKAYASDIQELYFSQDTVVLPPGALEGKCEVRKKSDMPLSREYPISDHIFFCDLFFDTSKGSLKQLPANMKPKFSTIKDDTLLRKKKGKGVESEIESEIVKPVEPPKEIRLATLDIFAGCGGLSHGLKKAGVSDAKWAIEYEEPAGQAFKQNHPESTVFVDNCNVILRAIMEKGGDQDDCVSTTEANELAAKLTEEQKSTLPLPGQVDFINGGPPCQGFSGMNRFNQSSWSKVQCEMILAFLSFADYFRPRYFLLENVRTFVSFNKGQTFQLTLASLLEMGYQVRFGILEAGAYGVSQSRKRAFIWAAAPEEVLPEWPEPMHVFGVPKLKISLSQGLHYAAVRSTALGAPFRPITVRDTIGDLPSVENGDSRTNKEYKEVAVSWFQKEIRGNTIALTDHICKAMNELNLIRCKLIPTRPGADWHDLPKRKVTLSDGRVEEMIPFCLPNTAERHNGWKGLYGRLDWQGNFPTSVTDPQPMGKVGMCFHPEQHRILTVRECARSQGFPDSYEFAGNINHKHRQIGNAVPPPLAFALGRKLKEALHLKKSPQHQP
Test: cryo-EM structure
Type: binding
Settings: ternary complex with 12 bp hemimethylated DNA (5-fluorocytosine covalently bound to Cys1198); formed from added SAM; 2.74 Å

In the case of Nc1ncnc2c1ncn2[C@@H]1O[C@H](CSCC[C@H](N)C(=O)O)[C@@H](O)[C@H]1O [SAH, S-adenosyl homocysteine], the cryo-EM structure is reported as “catalytic core containing S-adenosyl homocysteine (SAH, a methyl donor cofactor product) binding site”.
